Where only a bound is given, the exact number is not on record here.

This passage reports IC50 results from patent US9156829B2, “Cycloalkyl and heterocycloalkyl compounds as orexin receptor antagonists” (Takeda Pharmaceutical Company Limited, priority 2014, dated 2015).

Assay [1] deals with human orexin receptor 1 (Homo sapiens (Human), UniProt O43613). The experiment in a line: Orexin antagonist activity, intracellular calcium FLIPR assay, RBL-2H3 cells expressing human orexin receptor 1. In kind it is cell-based. The conditions noted are these: RBL-2H3 cells stably expressing human orexin receptor 1; orexin-A at approx. 80% maximal response; compound added 15 minutes before; read-out: Human Orexin1R IC50. (In general: A change in cytosolic calcium serves as a functional read-out for many receptors and channels.)
Sequence of human orexin receptor 1 (O43613 whole entry): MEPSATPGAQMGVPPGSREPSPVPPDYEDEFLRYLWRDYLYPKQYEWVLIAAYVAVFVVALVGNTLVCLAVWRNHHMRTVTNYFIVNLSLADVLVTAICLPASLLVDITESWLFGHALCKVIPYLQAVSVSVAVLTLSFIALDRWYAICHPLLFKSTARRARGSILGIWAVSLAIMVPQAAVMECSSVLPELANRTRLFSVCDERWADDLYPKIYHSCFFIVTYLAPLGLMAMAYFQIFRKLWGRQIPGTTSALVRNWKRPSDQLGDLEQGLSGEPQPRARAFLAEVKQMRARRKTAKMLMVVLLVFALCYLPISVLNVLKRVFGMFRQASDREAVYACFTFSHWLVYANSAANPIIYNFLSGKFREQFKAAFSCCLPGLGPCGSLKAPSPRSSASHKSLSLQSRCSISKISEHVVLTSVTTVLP

Assay [2] has as its target human orexin receptor 2 (Homo sapiens (Human), UniProt O43614). The experiment in a line: Orexin antagonist activity, intracellular calcium FLIPR assay, RBL-2H3 cells expressing human orexin receptor 2. The assay is classed as cell-based. Particulars: RBL-2H3 cells stably expressing human orexin receptor 2; orexin-A at approx. 80% maximal response; compound added 15 minutes before; read-out: Human Orexin2R IC50.

Sequence of human orexin receptor 2 (O43614 whole entry): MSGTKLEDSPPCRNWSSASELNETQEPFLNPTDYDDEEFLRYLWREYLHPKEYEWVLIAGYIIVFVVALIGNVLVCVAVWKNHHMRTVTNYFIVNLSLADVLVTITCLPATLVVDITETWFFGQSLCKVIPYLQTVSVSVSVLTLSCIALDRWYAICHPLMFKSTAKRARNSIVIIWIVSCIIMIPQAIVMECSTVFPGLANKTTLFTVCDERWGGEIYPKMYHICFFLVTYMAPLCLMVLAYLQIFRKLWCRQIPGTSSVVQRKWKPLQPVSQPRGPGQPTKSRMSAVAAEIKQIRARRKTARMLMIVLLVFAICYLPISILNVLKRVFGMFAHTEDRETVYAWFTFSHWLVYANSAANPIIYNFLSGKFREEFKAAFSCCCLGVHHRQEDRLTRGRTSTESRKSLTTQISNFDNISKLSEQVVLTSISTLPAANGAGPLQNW

The IC50 is the point on the concentration scale where inhibition reaches its midpoint. Regarding `CC1(Nc2ccc(OC(F)(F)F)cn2)CCCC1NC(=O)c1ccccc1-n1nccn1` (stereo not shown) [Example 96, N-(2-Methyl-2-{[5-(trifluoromethoxy)pyridin-2-yl]amino}cyclopentyl)-2-(2H-1,2,3-triazol-2-yl)benzamide], the figures for the 50% inhibitory concentration (IC50) in assay [1] and in assay [2] were 86 nM and 1360 nM, respectively.

Regarding `Cc1ccc(-n2nccn2)c(C(=O)N[C@H]2CCC[C@@H]2Nc2ccc(C(F)(F)F)cn2)c1` [Example 6, 5-Methyl-2-(2H-1,2,3-triazol-2-yl)-N-[(1S,2S)-2-{[5-(trifluoromethyl)pyridin-2-yl]amino}cyclopentyl]benzamide], the 50% inhibitory concentration (IC50) in assay [1] is 51 nM; in assay [2], > 10000 nM.

`COc1cccc(OC)c1C(=O)N[C@H]1CCC[C@@H]1Nc1ncc(C(F)(F)F)cn1` [Example 2, 2,6-Dimethoxy-N-[(1S,2S)-2-{[5-(trifluoromethyl)pyrimidin-2-yl]amino}cyclopentyl]benzamide]: the IC50 in assay [1] was 870 nM; in assay [2], > 10000 nM.

Regarding `C[C@]1(Nc2cnc(C(F)(F)F)cn2)CCC[C@@H]1NC(=O)c1ncccc1OC(F)(F)F` [Example 90, N-[(1S,2S)-2-Methyl-2-{[5-(trifluoromethyl)pyrazin-2-yl]amino}cyclopentyl]-3-(trifluoromethoxy)pyridine-2-carboxamide], the IC50 in assay [1] is 68 nM; in assay [2] it was > 10000 nM.

Turning to `O=C(N[C@H]1CCC[C@@H]1Nc1ccc(C(F)(F)F)cn1)c1cc(F)ccc1-n1nccn1` [Example 10, 5-Fluoro-2-(2H-1,2,3-triazol-2-yl)-N-[(1S,2S)-2-{[5-(trifluoromethyl)pyridin-2-yl]amino}cyclopentyl]benzamide], the IC50 in assay [1] is 59 nM; in assay [2], > 10000 nM.

`Cc1noc(-c2ccccc2C(=O)N[C@H]2CCC[C@@H]2Nc2ccc(C(F)(F)F)cn2)n1` [Example 8, 2-(3-Methyl-1,2,4-oxadiazol-5-yl)-N-[(1S,2S)-2-{[5-(trifluoromethyl)pyridin-2-yl]amino}cyclopentyl]benzamide]: the IC50 in assay [1] is 110 nM; in assay [2], > 10000 nM.

As for `C[C@]1(Nc2cnc(C(F)(F)F)cn2)CCC[C@@H]1NC(=O)c1c(F)cccc1F` [Example 88, 2,6-Difluoro-N-[(1S,2S)-2-methyl-2-{[5-(trifluoromethyl)pyrazin-2-yl]amino}cyclopentyl]benzamide], the 50% inhibitory concentration (IC50) is 166 nM in assay [1] and > 10000 nM in assay [2].

For `C[C@]1(Nc2cnc(C(F)(F)F)cn2)CCC[C@@H]1NC(=O)c1ccccc1-n1nccn1` [Example 81, N-[(1S,2S)-2-Methyl-2-{[5-(trifluoromethyl)pyrazin-2-yl]amino}cyclopentyl]-2-(2H-1,2,3-triazol-2-yl)benzamide], the IC50 in assay [1] is 7 nM; in assay [2], > 10000 nM.

Regarding `Cc1nc(C(F)(F)F)cnc1N[C@H]1CCC[C@@H]1NC(=O)c1ncccc1-c1ncccn1` [Example 159, N-[(1S,2S)-2-{[3-Methyl-5-(trifluoromethyl)pyrazin-2-yl]amino}cyclopentyl]-3-(pyrimidin-2-yl)pyridine-2-carboxamide], the half-inhibitory concentration (IC50) in assay [1] was 25 nM; in assay [2], > 10000 nM.

Turning to `Cc1noc(-c2ccccc2C(=O)N[C@H]2CCC[C@@H]2Nc2ncc(C(F)(F)F)cn2)n1` [Example 16, 2-(3-Methyl-1,2,4-oxadiazol-5-yl)-N-[(1S,2S)-2-{[5-(trifluoromethyl)pyrimidin-2-yl]amino}cyclopentyl]benzamide], the concentration for half-maximal inhibition (IC50) was 54 nM in assay [1] and > 10000 nM in assay [2].

As for `C[C@]1(Nc2cnc(C(F)(F)F)cn2)CCC[C@@H]1NC(=O)c1cc(F)ccc1-n1nccn1` [Example 84, 5-Fluoro-N-[(1S,2S)-2-methyl-2-{[5-(trifluoromethyl)pyrazin-2-yl]amino}cyclopentyl]-2-(2H-1,2,3-triazol-2-yl)benzamide], the IC50 in assay [1] was 22 nM; in assay [2], > 10000 nM.

Take `CC1(Nc2ccc(C(F)(F)F)cn2)CCCC1NC(=O)c1ncccc1-n1nccn1` (stereo not shown) [Example 155, N-(2-Methyl-2-{[5-(trifluoromethyl)pyridin-2-yl]amino}cyclopentyl)-3-(2H-1,2,3-triazol-2-yl)pyridine-2-carboxamide]: the IC50 was 8 nM in assay [1] and > 10000 nM in assay [2].

With `COc1cc(Br)cnc1N[C@H]1CCC[C@@H]1NC(=O)c1ccccc1-n1nccn1` [Example 119, N-[(1S,2S)-2-[(5-Bromo-3-methoxypyridin-2-yl)amino]cyclopentyl]-2-(2H-1,2,3-triazol-2-yl)benzamide], the figures for the IC50 in assay [1] and in assay [2] were 22 nM and 7800 nM, respectively.

Turning to `O=C(N[C@H]1CCC[C@@H]1Nc1ccc(C(F)(F)F)cn1)c1ccccc1-c1ncccn1` [Example 13, 2-(Pyrimidin-2-yl)-N-[(1S,2S)-2-{[5-(trifluoromethyl)pyridin-2-yl]amino}cyclopentyl]benzamide], the half-maximal inhibitory concentration (IC50) in assay [1] was 99 nM; in assay [2] it was > 10000 nM.

For the molecule `C[C@]1(Nc2cnc(C(F)(F)F)cn2)CCC[C@@H]1NC(=O)c1ncccc1C1CC1` [Example 89, 3-Cyclopropyl-N-[(1S,2S)-2-methyl-2-{[5-(trifluoromethyl)pyrazin-2-yl]amino}cyclopentyl]pyridine-2-carboxamide], the IC50 in assay [1] is 140 nM; in assay [2], > 10000 nM.

In the case of `C[C@]1(Nc2cnc(C(F)(F)F)cn2)CCC[C@@H]1NC(=O)c1cc(Cl)ccc1-n1nccn1` [Example 92, 5-Chloro-N-[(1S,2S)-2-methyl-2-{[5-(trifluoromethyl)pyrazin-2-yl]amino}cyclopentyl]-2-(2H-1,2,3-triazol-2-yl)benzamide], the IC50 in assay [1] turned out to be 8 nM; in assay [2], 5570 nM.

As for `O=C(N[C@H]1CCC[C@@H]1Nc1cnc(C(F)(F)F)cn1)c1c(Cl)cccc1-n1nccn1` [Example 40, 2-Chloro-6-(2H-1,2,3-triazol-2-yl)-N-[(1S,2S)-2-{[5-(trifluoromethyl)pyrazin-2-yl]amino}cyclopentyl]benzamide], the figures for the 50% inhibitory concentration (IC50) in assay [1] and in assay [2] were 35 nM and > 10000 nM, respectively.

With `CCc1cnc(N[C@H]2CCC[C@@H]2NC(=O)c2cc(C)ccc2-n2nccn2)nc1` [Example 4, N-[(1S,2S)-2-[(5-Ethylpyrimidin-2-yl)amino]cyclopentyl]-5-methyl-2-(2H-1,2,3-triazol-2-yl)benzamide], the IC50 in assay [1] is 520 nM; in assay [2] it was > 10000 nM.

As for `O=C(NC1CC(F)(F)CC1Nc1ccc(C(F)(F)F)cn1)c1ccccc1-n1nccn1` (single isomer, unassigned) [Example 129, N-(4,4-Difluoro-2-{[5-(trifluoromethyl)pyridin-2-yl]amino}cyclopentyl)-2-(2H-1,2,3-triazol-2-yl)benzamide], the IC50 in assay [1] came to 633 nM; in assay [2], 8750 nM.

With `CC(C)c1nc(C(F)(F)F)cnc1N[C@H]1CCC[C@@H]1NC(=O)c1ccccc1-n1nccn1` [Example 110, N-[(1S,2S)-2-{[3-(Propan-2-yl)-5-(trifluoromethyl)pyrazin-2-yl]amino}cyclopentyl]-2-(2H-1,2,3-triazol-2-yl)benzamide], the IC50 in assay [1] was determined as 43 nM; in assay [2], 3550 nM.

Consider `O=C(N[C@H]1CCC[C@@H]1Nc1cnc(C(F)(F)F)cn1)c1ncccc1OC(F)(F)F` [Example 58, 3-(Trifluoromethoxy)-N-[(1S,2S)-2-{[5-(trifluoromethyl)pyrazin-2-yl]amino}cyclopentyl]pyridine-2-carboxamide], for which the results for the 50% inhibitory concentration (IC50) in assay [1] and in assay [2] were 934 nM and > 10000 nM, respectively.

As to `CCOc1cccnc1C(=O)N[C@H]1CCC[C@]1(C)Nc1cnc(C(F)(F)F)cn1` [Example 86, 3-Ethoxy-N-[(1S,2S)-2-methyl-2-{[5-(trifluoromethyl)pyrazin-2-yl]amino}cyclopentyl]pyridine-2-carboxamide], the values for the IC50 in assay [1] and in assay [2] were 129 nM and > 10000 nM, respectively.

Regarding `O=C(N[C@H]1CCC[C@@H]1Nc1ncc(C(F)(F)F)cn1)c1ccccc1Cl` [Example 70, 2-Chloro-N-[(1S,2S)-2-{[5-(trifluoromethyl)pyrimidin-2-yl]amino}cyclopentyl]benzamide], the IC50 in assay [1] is 678 nM; in assay [2] it was > 10000 nM.

`CC1(Nc2ncc(C(F)(F)F)cn2)CCCC1NC(=O)c1ccccc1-n1nccn1` (single isomer, unassigned) [Example 94, N-(2-Methyl-2-{[5-(trifluoromethyl)pyrimidin-2-yl]amino}cyclopentyl)-2-(2H-1,2,3-triazol-2-yl)benzamide]: the results for the half-inhibitory concentration (IC50) in assay [1] and in assay [2] were 28 nM and > 10000 nM, respectively.

Turning to `Cc1cc(C(F)(F)F)cnc1N[C@H]1CCC[C@@H]1NC(=O)c1ncccc1-n1nccn1` [Example 124, N-[(1S,2S)-2-{[3-Methyl-5-(trifluoromethyl)pyridin-2-yl]amino}cyclopentyl]-3-(2H-1,2,3-triazol-2-yl)pyridine-2-carboxamide], the half-maximal inhibitory concentration (IC50) was 21 nM in assay [1] and > 10000 nM in assay [2].

`CCc1nc(C(F)(F)F)cnc1N[C@H]1CCC[C@@H]1NC(=O)c1ncccc1-c1ncccn1` [Example 150, N-[(1S,2S)-2-{[3-Ethyl-5-(trifluoromethyl)pyrazin-2-yl]amino}cyclopentyl]-3-(pyrimidin-2-yl)pyridine-2-carboxamide]: the concentration for half-maximal inhibition (IC50) was 43 nM in assay [1] and > 10000 nM in assay [2].

Turning to `O=C(N[C@H]1CCC[C@@H]1Nc1cnc(C(F)(F)F)cn1)c1cc(Cl)ccc1-n1nccn1` [Example 52, 5-Chloro-2-(2H-1,2,3-triazol-2-yl)-N-[(1S,2S)-2-{[5-(trifluoromethyl)pyrazin-2-yl]amino}cyclopentyl]benzamide], the IC50 in assay [1] was 69 nM; in assay [2], > 10000 nM.

`O=C(NC1CC(F)(F)CC1Nc1cnc(C(F)(F)F)cn1)c1ccccc1-n1nccn1` (single isomer, unassigned) [Example 130, N-(4,4-Difluoro-2-{[5-(trifluoromethyl)pyrazin-2-yl]amino}cyclopentyl)-2-(2H-1,2,3-triazol-2-yl)benzamide]: the IC50 in assay [1] worked out at 77 nM.
